# The source made the active and inactive calls. The rule behind the calls is not given here.
# Assays:
# [1] = species: Homo sapiens; test: Binding affinity to NMDA receptor polyamine site (unknown origin) 10 umol/L by radioligand binding assay; conditions: dose 10.0 µmol/L
# [2] = target: Metabotropic glutamate receptor 3 (Rattus norvegicus) (UniProt P31422); test: Agonist activity at rat mGlu3 receptor expressed in CHO cell membranes by GTPgammaS binding assay relative to control; assay type: functional; conditions: Cell membrane, filed as agonist
# [3] = target: Nociceptin receptor (Homo sapiens) (UniProt P41146); test: Binding affinity to ORL1 receptor (unknown origin) 10 umol/L by radioligand binding assay; conditions: dose 10.0 µmol/L
# Nociceptin receptor (Homo sapiens), sequence (P41146 whole entry): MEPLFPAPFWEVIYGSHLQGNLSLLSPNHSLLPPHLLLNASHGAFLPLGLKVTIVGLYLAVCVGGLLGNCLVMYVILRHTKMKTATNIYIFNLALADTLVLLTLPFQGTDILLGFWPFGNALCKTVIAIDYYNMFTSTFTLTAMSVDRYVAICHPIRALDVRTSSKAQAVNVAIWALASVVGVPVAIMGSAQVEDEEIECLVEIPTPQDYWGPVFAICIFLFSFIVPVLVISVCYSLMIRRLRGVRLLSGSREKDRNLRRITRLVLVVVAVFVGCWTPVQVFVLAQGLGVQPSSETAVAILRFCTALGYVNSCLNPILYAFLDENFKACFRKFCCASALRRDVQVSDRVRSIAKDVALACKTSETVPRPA
# [4] = target: Metabotropic glutamate receptor 3 (Homo sapiens, UniProt Q14832); test: Antagonist activity at human mGlu3 receptor expressed in CHO cell membranes in presence of glutamate by GTPgammaS binding assay; assay type: functional, Cell membrane
# [5] = target: T1, Metabotropic glutamate receptor 8 (Homo sapiens, UniProt O00222); test: Antagonist activity at human mGlu8 receptor expressed in CHO cell membranes in presence of glutamate by GTPgammaS binding assay; assay type: functional, Cell membrane
# T1 sequence (O00222 whole entry): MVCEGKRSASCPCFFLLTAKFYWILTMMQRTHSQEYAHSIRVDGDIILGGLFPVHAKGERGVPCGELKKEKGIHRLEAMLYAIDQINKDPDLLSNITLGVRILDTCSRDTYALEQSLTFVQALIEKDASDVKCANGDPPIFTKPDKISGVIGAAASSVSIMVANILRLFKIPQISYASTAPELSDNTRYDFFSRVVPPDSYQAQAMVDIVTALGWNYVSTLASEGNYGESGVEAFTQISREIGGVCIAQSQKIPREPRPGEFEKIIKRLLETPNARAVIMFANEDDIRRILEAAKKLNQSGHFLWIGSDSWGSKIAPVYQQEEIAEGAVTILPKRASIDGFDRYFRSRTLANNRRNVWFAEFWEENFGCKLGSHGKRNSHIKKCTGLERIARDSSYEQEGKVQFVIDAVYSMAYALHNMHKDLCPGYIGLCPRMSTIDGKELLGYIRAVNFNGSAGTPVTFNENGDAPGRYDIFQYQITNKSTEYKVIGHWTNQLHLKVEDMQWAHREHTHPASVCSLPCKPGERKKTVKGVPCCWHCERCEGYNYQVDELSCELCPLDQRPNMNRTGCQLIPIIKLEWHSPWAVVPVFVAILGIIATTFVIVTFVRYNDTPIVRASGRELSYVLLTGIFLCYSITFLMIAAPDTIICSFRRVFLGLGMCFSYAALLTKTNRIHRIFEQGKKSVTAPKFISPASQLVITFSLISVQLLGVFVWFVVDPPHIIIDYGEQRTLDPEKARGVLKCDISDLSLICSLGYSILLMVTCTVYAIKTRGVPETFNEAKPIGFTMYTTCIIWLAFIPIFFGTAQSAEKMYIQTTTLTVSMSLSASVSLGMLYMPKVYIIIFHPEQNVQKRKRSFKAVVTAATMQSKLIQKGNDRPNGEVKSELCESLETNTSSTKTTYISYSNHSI
# [6] = target: Endothelin-1 receptor (Homo sapiens) (UniProt P25101); test: Binding affinity to ETA receptor (unknown origin) 10 umol/L by radioligand binding assay; conditions: dose 10.0 µmol/L
# Endothelin-1 receptor (Homo sapiens), sequence (P25101 whole entry): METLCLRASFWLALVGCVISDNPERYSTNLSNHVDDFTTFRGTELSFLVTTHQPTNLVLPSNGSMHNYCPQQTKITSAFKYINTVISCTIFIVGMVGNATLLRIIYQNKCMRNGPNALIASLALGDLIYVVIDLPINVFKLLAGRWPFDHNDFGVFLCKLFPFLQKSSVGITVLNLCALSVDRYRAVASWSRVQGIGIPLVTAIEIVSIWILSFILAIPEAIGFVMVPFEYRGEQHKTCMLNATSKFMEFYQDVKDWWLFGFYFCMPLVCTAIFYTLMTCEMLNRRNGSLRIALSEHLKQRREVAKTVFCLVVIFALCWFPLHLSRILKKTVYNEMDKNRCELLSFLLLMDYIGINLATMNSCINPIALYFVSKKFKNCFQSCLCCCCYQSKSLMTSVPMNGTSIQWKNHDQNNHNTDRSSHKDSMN
# [7] = target: T1, Metabotropic glutamate receptor 8; test: Agonist activity at human mGlu8 receptor expressed in CHO cell membranes by GTPgammaS binding assay; assay type: functional, Cell membrane
# [8] = target: T2, Metabotropic glutamate receptor 6 (Homo sapiens, UniProt O15303); test: Agonist activity at human mGlu6 receptor expressed in HEK293T cell membranes by GTPgammaS binding assay; assay type: functional, Cell membrane
# [9] = target: T3, Metabotropic glutamate receptor 4 (Homo sapiens, UniProt Q14833); test: Agonist activity at human mGlu4 receptor expressed in CHO cell membranes by GTPgammaS binding assay; assay type: functional, Cell membrane
# T3 sequence (Q14833 whole entry): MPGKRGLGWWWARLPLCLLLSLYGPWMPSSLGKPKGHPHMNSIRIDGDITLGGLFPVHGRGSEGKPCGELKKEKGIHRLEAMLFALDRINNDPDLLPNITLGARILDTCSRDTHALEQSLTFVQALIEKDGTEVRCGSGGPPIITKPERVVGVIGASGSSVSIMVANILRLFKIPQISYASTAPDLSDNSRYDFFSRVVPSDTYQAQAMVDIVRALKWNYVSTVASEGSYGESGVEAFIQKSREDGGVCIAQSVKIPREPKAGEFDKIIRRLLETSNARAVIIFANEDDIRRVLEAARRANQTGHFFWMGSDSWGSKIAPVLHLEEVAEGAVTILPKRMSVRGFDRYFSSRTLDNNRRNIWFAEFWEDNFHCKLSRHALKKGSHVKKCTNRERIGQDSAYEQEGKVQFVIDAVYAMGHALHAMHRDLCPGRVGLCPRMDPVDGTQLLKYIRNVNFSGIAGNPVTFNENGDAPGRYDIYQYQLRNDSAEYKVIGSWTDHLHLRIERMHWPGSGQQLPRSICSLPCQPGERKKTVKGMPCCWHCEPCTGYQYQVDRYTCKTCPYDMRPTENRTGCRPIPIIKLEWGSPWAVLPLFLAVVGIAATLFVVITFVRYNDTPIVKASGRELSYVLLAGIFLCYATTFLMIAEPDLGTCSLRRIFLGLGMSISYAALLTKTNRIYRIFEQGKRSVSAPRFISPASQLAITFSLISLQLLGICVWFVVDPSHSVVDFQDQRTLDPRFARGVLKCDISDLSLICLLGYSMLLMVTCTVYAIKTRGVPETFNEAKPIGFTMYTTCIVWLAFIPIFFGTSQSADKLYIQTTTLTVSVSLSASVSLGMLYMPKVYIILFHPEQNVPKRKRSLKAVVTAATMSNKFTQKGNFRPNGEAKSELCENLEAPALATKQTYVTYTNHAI
# [10] = target: Vasoactive intestinal polypeptide receptor 1 (Homo sapiens) (UniProt P32241); test: Binding affinity to VIP1 receptor (unknown origin) 10 umol/L by radioligand binding assay; conditions: dose 10.0 µmol/L
# Vasoactive intestinal polypeptide receptor 1 (Homo sapiens), sequence (P32241 whole entry): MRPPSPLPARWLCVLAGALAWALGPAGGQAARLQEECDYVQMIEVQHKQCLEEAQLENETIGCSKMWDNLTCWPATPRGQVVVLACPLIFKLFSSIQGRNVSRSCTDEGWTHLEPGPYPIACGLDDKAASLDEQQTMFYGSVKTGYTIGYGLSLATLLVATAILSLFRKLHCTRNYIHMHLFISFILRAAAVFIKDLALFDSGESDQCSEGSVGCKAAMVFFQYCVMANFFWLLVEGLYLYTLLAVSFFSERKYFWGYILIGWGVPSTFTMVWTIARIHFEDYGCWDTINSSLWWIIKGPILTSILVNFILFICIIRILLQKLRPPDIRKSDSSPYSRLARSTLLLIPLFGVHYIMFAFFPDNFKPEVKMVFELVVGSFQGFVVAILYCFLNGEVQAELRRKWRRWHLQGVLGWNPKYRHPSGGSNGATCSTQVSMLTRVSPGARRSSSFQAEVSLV
# [11] = target: T2, Metabotropic glutamate receptor 6; test: Antagonist activity at human mGlu6 receptor expressed in HEK293T cell membranes in presence of glutamate by GTPgammaS binding assay; assay type: functional, Cell membrane
# [12] = species: Homo sapiens; test: Binding affinity to sodium channel site 2 (unknown origin) 10 umol/L by radioligand binding assay; conditions: dose 10.0 µmol/L
# [13] = target: Adenosine receptor A3 (Homo sapiens) (UniProt P0DMS8); test: Binding affinity to A3 receptor (unknown origin) 10 umol/L by radioligand binding assay; conditions: dose 10.0 µmol/L
# Adenosine receptor A3 (Homo sapiens), sequence (P0DMS8 whole entry): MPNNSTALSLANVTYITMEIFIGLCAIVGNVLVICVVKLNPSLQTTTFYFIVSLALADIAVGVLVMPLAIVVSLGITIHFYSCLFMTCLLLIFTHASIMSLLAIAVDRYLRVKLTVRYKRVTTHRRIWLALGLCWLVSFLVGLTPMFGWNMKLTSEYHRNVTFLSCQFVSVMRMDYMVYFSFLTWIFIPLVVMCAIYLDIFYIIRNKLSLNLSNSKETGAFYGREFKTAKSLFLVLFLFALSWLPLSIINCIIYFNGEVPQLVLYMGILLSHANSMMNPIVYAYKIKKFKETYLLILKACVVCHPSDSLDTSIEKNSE
# [14] = target: T3, Metabotropic glutamate receptor 4; test: Antagonist activity at human mGlu4 receptor expressed in CHO cell membranes in presence of glutamate by GTPgammaS binding assay; assay type: functional, Cell membrane
# [15] = target: Metabotropic glutamate receptor 3 (Rattus norvegicus, UniProt P31422); test: Agonist activity at rat mGlu3 receptor expressed in CHO cell membranes by GTPgammaS binding assay; assay type: functional, Cell membrane
# [16] = species: Homo sapiens; test: Binding affinity to Voltage-dependent N-type calcium channel (unknown origin) 10 umol/L by radioligand binding assay; conditions: dose 10.0 µmol/L
# [17] = target: T4, Metabotropic glutamate receptor 1 (Homo sapiens, UniProt Q13255); test: Agonist activity at human mGlu1 receptor expressed in CHO cell membranes by intracellular Ca2+ assay; assay type: functional, Cell membrane
# T4 sequence (Q13255 whole entry): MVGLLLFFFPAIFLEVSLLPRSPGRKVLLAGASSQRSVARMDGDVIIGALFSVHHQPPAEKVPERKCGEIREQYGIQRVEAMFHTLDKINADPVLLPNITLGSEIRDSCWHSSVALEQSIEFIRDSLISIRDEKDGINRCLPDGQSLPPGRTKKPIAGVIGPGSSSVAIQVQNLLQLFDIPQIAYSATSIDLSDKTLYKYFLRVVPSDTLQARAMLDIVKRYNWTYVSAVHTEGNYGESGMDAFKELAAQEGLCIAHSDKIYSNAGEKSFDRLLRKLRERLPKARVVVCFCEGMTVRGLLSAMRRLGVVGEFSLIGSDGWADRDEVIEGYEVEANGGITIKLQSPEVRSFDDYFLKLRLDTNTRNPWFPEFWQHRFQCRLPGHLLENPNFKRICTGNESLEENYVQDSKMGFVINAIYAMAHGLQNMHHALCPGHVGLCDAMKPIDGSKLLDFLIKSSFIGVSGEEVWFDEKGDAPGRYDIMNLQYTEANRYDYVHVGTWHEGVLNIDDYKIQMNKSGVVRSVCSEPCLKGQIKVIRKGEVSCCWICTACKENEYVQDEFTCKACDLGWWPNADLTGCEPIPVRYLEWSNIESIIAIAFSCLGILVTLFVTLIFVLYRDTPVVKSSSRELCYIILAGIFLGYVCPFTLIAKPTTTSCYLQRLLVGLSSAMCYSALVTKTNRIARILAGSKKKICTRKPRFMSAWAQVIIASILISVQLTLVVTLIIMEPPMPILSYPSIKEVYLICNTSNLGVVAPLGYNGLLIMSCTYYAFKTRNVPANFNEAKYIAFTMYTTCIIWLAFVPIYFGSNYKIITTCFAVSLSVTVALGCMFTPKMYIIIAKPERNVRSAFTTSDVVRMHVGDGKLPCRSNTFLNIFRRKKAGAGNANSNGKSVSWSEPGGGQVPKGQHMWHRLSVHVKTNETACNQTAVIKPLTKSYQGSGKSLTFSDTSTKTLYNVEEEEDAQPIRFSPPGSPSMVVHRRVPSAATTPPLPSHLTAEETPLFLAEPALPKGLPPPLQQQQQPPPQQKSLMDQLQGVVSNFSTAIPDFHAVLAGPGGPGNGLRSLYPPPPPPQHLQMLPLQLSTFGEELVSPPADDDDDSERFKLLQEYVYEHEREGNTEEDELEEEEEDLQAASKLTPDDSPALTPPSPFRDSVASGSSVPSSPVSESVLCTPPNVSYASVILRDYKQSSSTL
# [18] = target: T4, Metabotropic glutamate receptor 1; test: Antagonist activity at human mGlu1 receptor expressed in CHO cell membranes in presence of glutamate by intracellular Ca2+ assay; assay type: functional, Cell membrane
# [19] = Oral bioavailability in monkey at 4.92 umol/kg measured up to 24 hrs by LC-MS/MS analysis; assay type: ADME, organism-based, Macaca mulatta; conditions: rhesus monkey, in vivo, at 4.92 µmol/kg
# [20] = target: Metabotropic glutamate receptor 2 (Homo sapiens, UniProt Q14416); test: Agonist activity at human mGlu2 receptor expressed in CHO cell membranes by GTPgammaS binding assay; assay type: functional, Cell membrane
Activity [1],Emax [2] [%],Activity [3],IC50 [4] [µM],IC50 [5] [µM],Activity [6],EC50 [7] [µM],EC50 [8] [µM],EC50 [9] [µM],Activity [10],IC50 [11] [µM],Activity [12],Activity [13],IC50 [14] [µM],EC50 [15] [µM],Activity [16],EC50 [17] [µM],IC50 [18] [µM],bioavailability [19] [%],EC50 [20] [µM],SMILES
inactive,99.7,inactive,> 30,> 30,inactive,> 30,> 30,> 30,inactive,> 30,inactive,inactive,> 30,0.0969,inactive,> 30,> 30,4,,N[C@]1(C(=O)O)[C@H]2[C@@H](C[C@@H]1F)[C@@H]2C(=O)O
inactive,,inactive,,,inactive,,,,inactive,,inactive,inactive,,,inactive,,,,> 30,CC(C)[C@@H]1CC[C@@H](C)C[C@H]1OC(=O)O[C@@H](C)OC(=O)[C@H]1[C@@H]2C[C@H](F)[C@@](N)(C(=O)O)[C@@H]21

# Source: ChEMBL document CHEMBL4706518, “Discovery of MGS0274, an ester prodrug of a metabotropic glutamate receptor 2/3 agonist with improved oral bioavailability” (Eur J Med Chem, 2020)
